Source: patent publication US9340559B2, “Proteasome inhibitor delanzomib for use in the treatment of lupus” (Cephalon, Inc., priority 2011, dated 2016)

What was measured:
Format in all cases: in vivo, mouse
NZM mice [1] = experiment: Body weight progression, NZM mice (Example 2); conditions: G6 50 mg/kg ip, 1× wk
NZM mice [2] = experiment: Splenomegaly (spleen mass), NZM mice (Example 2)
NZM mice [3] = experiment: Collagen type-I cross-linker (CTx) bone resorption biomarker ELISA, serum of NZM mice; conditions: G6 50 mg/kg ip, 1× wk
Description: Assay is performed as instructed by the manufacturer. Briefly, biotinylated ratlaps antigen is first added in each well of a 96-well ELISA plate. This plate is covered and incubated for 30 minutes at RT. Plate is washed five times with washing solution and incubated with standards or unknown samples in appropriate wells followed by primary Ab. Incubate overnight for 18 hours at 4° C. followed by washing with buffer. Secondary incubation includes a peroxidase conjugated goat anti-rabbit IgG added to each well and incubation at RT for 1 hour. Incubation with chromogenic substrate solution for 15 minutes at RT in the dark develops the plate for analysis. Stopping solution halts the reaction, absorbance is measured within 2 hours at 450 nm.

NZM mice [4] = experiment: Renal histopathology scoring (kidney IC-GN), NZM mice (Example 2)
Description: For histological analyses, the left kidney from each animal is removed and fixed in 10% buffered neutral formalin (EMD) for 48 hours on an orbital rocker at 25° C., then washed overnight with running dH2O and stored in 70% ethanol at 4° C. until ready to be processed. Kidney stains used for histological analyses included hematoxylin and eosin (H&E), Periodic Acid Schiff (PAS) and Trichrome stains (Wistar Institute, Philadelphia, Pa.). All 3 stained sections are used by the pathologist for scoring purposes. All histological scoring is performed blinded and by an independent board certified veterinary medical pathologist (Julie Engiles, VMD, DACVP). Multiple stains are used to determine score values. Images in FIG. 39 show worst affected area of section selected blindly by the pathologist.
Kidney IC-GN Scoring Method (Smith, Dong et al. 2007):
1. Glomerular cellularity—Score 1-5: Null, low, moderate, high, severe
2. Glomerular necrosis—Score 1-5: Null, low, moderate, high, severe
3. Glomerulosclerosis—Score 1-5: Null, low, moderate, high, severe
4. Interstitial infiltration—Score 1-5: Null, low, moderate, high, severe
5. Tubular atrophy—Score 1-5: Null, low, moderate, high, severe
6. Interstitial fibrosis—Score 1-5: Null, low, moderate, high, severe
7. Vasculitis—Score 1-5: Null, low, moderate, high, severe
Specific Pathologist Definitions: • Necrosis is defined by the presence of nuclear debris/pyknosis within the glomerular tuft indicative of “necrosis.” In many samples, this is a very mild, rare finding within only a very few segments of the glomerular tuft. Also consider effacement of the glomerular tuft by PAS positive, Trichrome negative material necrosis. • Glomerular sclerosis is defined by increased fibroplasia or fibrosis within the glomerular tuft or capsule. […] Most of the vascular changes are mild and could be considered “arteriosclerosis” characterized by proliferation of the smooth muscle cells, and hyalinization of the extracellular matrix. This change may reflect hypertension secondary to glomerular pathology. In very few animals is there overt “vasculitis.” Most inflammatory changes are within the walls of the blood vessels, with little to no damage to the endothelium, and no overt hemorrhage/fibrin leakage. Many also have perivascular rims of fibroblasts.

NZM mice [5] = experiment: Survival, NZM lupus nephritis model, ip dosing (Example 2); conditions: G6 50 mg/kg ip, 1× wk
NZM mice [6] = system: NZM mice

## O=P1(N(CCCl)CCCl)NCCCO1 (centres unmarked) [CTX, Cyclophosphamide]
NZM mice [1]
  Body mass AUC, percent change vs vehicle: +4%
NZM mice [2]; G6 50 mg/kg ip, 1× wk
  Spleen mass EOS, percent change vs vehicle: −42%
NZM mice [2]; p<0.05
  spleen mass compared to once-a-week bortezomib: reduced spleen mass significantly
NZM mice [3]
  Serum CTx linker AUC, percent change vs vehicle: −26%
NZM mice [4]; G5 50 mg/kg 1× wk
  p, glomerular cellularity (GC) vs G7 Vehicle: p < 0.05
NZM mice [4]; G6 50 mg/kg ip, 1× wk
  Kidney glomerular cellularity, percent change vs vehicle: −7%
  Kidney glomerular necrosis, percent change vs vehicle: 42%
  Kidney glomerulosclerosis, percent change vs vehicle: 34%
  Kidney interstitial fibrosis, percent change vs vehicle: 11%
  Kidney interstitial infiltration, percent change vs vehicle: 11%
  Kidney tubular atrophy, percent change vs vehicle: 18%
  Kidney vasculitis, percent change vs vehicle: 9%
NZM mice [5]
  EOS survival, percent live mice from original number: 70%
NZM mice [6]; G6 50 mg/kg ip, 1× wk
  Cytokine IL-12 AUC, percent change vs vehicle: −78%
  Cytokine IL-13 AUC, percent change vs vehicle: 486%
  Cytokine IL-17A AUC, percent change vs vehicle: 508%
  Cytokine IP-10 AUC, percent change vs vehicle: 338%
  Cytokine MIG AUC, percent change vs vehicle: 359%
  Cytokine TNFα AUC, percent change vs vehicle: −25%
NZM mice [6]; G7 50 mg/kg 1× wk ip
  p, serum IL-12p40/p70 concentration vs G5 Bortezomib 0.3 mg/kg 1× wk ip: NS (NS = not significant (p > 0.05))
  p, serum IL-12p40/p70 concentration vs G6 Bortezomib 0.3 mg/kg 2× wk ip: NS (NS = not significant (p > 0.05))
  p, serum IL-12p40/p70 concentration vs G8 Dex 1.5 mg/kg 3× wk ip: NS (NS = not significant (p > 0.05))
  p, serum IL-12p40/p70 concentration vs G9 Vehicle 1× wk ip: p < 0.001
  p, serum IL-13 concentration vs G5 Bortezomib 0.3 mg/kg 1× wk ip: p < 0.001
  p, serum IL-13 concentration vs G6 Bortezomib 0.3 mg/kg 2× wk ip: p < 0.001
  p, serum IL-13 concentration vs G8 Dex 1.5 mg/kg 3× wk ip: p < 0.001
  p, serum IL-13 concentration vs G9 Vehicle 1× wk ip: p < 0.001
  p, serum IL-17A concentration vs G5 Bortezomib 0.3 mg/kg 1× wk ip: NS (NS = not significant (p > 0.05))
  p, serum IL-17A concentration vs G6 Bortezomib 0.3 mg/kg 2× wk ip: p < 0.001
